Experimental data from ChEMBL document CHEMBL5532643, “Design and synthesis of etrasimod derivatives as potent antibacterial agents against Gram-positive bacteria” (Eur J Med Chem, 2024).
Values after ≈ are worked out from the molar mass of the structure shown. Active and inactive are the calls of the source. No cut-off for these calls is given here.

Key:
[1] = tested on: Staphylococcus aureus; test: Bactericidal activity against Staphylococcus aureus ATCC 25923 assessed as log reduction in colony forming units at 0.5 to 8 times MIC measured after 24 hrs by time kill-assay; format: functional
[2] = Selectivity index, ratio of CC50 for cytotoxicity against human THP-1 cells assessed as reduction in cell viability to MIC for antibacterial activity against methicillin-resistant Staphylococcus aureus assessed as reduction in bacterial growth; format: toxicity, cell-based; settings: read-out: Selectivity Index
[3] = tested on: Enterococcus faecalis; test: Synergistic antibacterial activity against Enterococcus faecalis ATCC 29212 incubated for 18 to 20 hrs in presence of gentamicin by checkboard assay; format: functional; settings: time 18-20 hrs
[4] = tested on: A549; test: Cytotoxicity against human A549 cells assessed as reduction in cell viability at 100 uM incubated for 24 hrs by resazurin staining based analysis relative to control; format: functional
[5] = tested on: Enterococcus faecalis; test: Synergistic antibacterial activity against Enterococcus faecalis ATCC 29212 assessed as ciprofloxacin MIC incubated for 18 to 20 hrs by checkboard assay; format: functional; settings: time 18-20 hrs
[6] = tested on: Enterococcus faecalis; test: Synergistic antibacterial activity against Enterococcus faecalis ATCC 29212 assessed as fractional inhibitory concentration index incubated for 18 to 20 hrs in presence of vancomycin by checkboard assay; format: functional; settings: time 18-20 hrs
[7] = tested on: Staphylococcus aureus; test: Antibacterial activity against Staphylococcus aureus ATCC 25923 assessed as inhibition of bacterial growth at 40 uM incubated for 18 to 24 hrs by broth microdilution assay relative to control; format: functional; settings: time 18-24 hrs
[8] = tested on: Enterococcus faecalis; test: Antibacterial activity against vancomycin-resistant Enterococcus faecalis ATCC 51575 assessed as reduction in bacterial growth incubated for 18 to 20 hrs by broth microdilution assay; format: functional; settings: time 18-20 hrs
[9] = tested on: Staphylococcus aureus; test: Synergistic antibacterial activity against methicillin-resistant Staphylococcus aureus ATCC 43300 assessed as linezolid MIC incubated for 18 to 20 hrs by checkboard assay; format: functional; settings: time 18-20 hrs
[10] = tested on: Staphylococcus aureus; test: Synergistic antibacterial activity against Staphylococcus aureus ATCC 25923 assessed as linezolid MIC incubated for 18 to 20 hrs by checkboard assay; format: functional; settings: time 18-20 hrs
[11] = tested on: Staphylococcus aureus; test: Antibacterial activity against […] Staphylococcus aureus ATCC 43300 assessed as reduction in bacterial growth incubated for 18 to 20 hrs by broth microdilution assay; format: functional; settings: time 18-20 hrs
[12] = tested on: Staphylococcus aureus; test: Synergistic antibacterial activity against Staphylococcus aureus ATCC 25923 assessed as fractional inhibitory concentration index incubated for 18 to 20 hrs in presence of vancomycin by checkboard assay; format: functional; settings: time 18-20 hrs
[13] = Hemolytic activity in mouse RBC assessed as hemolysis at 125 uM incubated for 1 hr; format: toxicity, cell-based, Erythrocyte; settings: mouse red blood cells (erythrocytes), read-out: Activity
[14] = tested on: Staphylococcus aureus; test: Synergistic antibacterial activity against methicillin-resistant Staphylococcus aureus ATCC 43300 assessed as fractional inhibitory concentration index incubated for 18 to 20 hrs in presence of ciprofloxacin by checkboard assay; format: functional; settings: time 18-20 hrs
[15] = Selectivity index, ratio of CC50 for cytotoxicity against human THP-1 cells assessed as reduction in cell viability to MIC for antibacterial activity against methicillin-resistant Staphylococcus epidermidis assessed as reduction in bacterial growth; format: toxicity, cell-based; settings: read-out: Selectivity Index
[16] = tested on: Staphylococcus aureus; test: Synergistic antibacterial activity against Staphylococcus aureus ATCC 25923 assessed as fractional inhibitory concentration index incubated for 18 to 20 hrs in presence of ciprofloxacin by checkboard assay; format: functional; settings: time 18-20 hrs
[17] = tested on: Staphylococcus aureus; test: Antimicrobial activity against Staphylococcus aureus ATCC 25923 infected in Caenorhabditis elegans AU37 assessed as reduction in number of viable bacteria at 20 uM incubated for 18 hrs; format: functional, organism-based
[18] = tested on: Cell membrane; test: Induction of cell membrane damage in Staphylococcus aureus ATCC 25923 at 8 times MIC incubated for 2 hrs by scanning electron microscopic analysis; format: cell membranes
[19] = tested on: Staphylococcus aureus; test: Synergistic antibacterial activity against methicillin-resistant Staphylococcus aureus ATCC 43300 assessed as ciprofloxacin MIC incubated for 18 to 20 hrs by checkboard assay; format: functional; settings: time 18-20 hrs
[20] = tested on: Cell membrane; test: Induction of cell membrane permeability in Staphylococcus aureus ATCC 25923 assessed as increase in fluorescence intensity at 4 times MIC incubated for 30 mins by PI staining based analysis; format: cell membranes
[21] = tested on: Staphylococcus aureus; test: Bactericidal activity against Staphylococcus aureus ATCC 25923 assessed as reduction in bacterial growth at 0.5 to 8 times MIC incubated for 24 hrs by time-kill assay; format: functional
[22] = tested on: Staphylococcus aureus; test: Drug resistance, ratio of MIC for methicillin-resistant Staphylococcus aureus after 20 days exposure to MIC for methicillin-resistant Staphylococcus aureus during first exposure; format: functional; settings: time 20 day
[23] = tested on: Enterococcus faecium; test: Antibacterial activity against vancomycin-resistant Enterococcus faecium ATCC 700221 assessed as reduction in bacterial growth incubated for 18 to 20 hrs by broth microdilution assay; format: functional; settings: time 18-20 hrs
[24] = tested on: Staphylococcus epidermidis; test: Antibacterial activity against Staphylococcus epidermidis RP62A assessed as reduction in bacterial growth incubated for 18 to 20 hrs by broth microdilution assay; format: functional; settings: time 18-20 hrs
[25] = tested on: Enterococcus faecalis; test: Synergistic antibacterial activity against Enterococcus faecalis ATCC 29212 incubated for 18 to 20 hrs in presence of linezolid by checkboard assay; format: functional; settings: time 18-20 hrs
[26] = tested on: Erythrocyte; test: Hemolytic activity in mouse RBC assessed as hemolysis at 62.5 uM incubated for 1 hr; format: toxicity, cell-based
[27] = tested on: Staphylococcus aureus; test: Bactericidal activity against Staphylococcus aureus ATCC 25923 assessed as log reduction in colony forming units at 4 to 8 times MIC measured after 1 to 2 hrs by time kill-assay; format: functional; settings: time 1-2 hrs
[28] = tested on: Enterococcus faecalis; test: Synergistic antibacterial activity against Enterococcus faecalis ATCC 29212 assessed as fractional inhibitory concentration index incubated for 18 to 20 hrs in presence of ciprofloxacin by checkboard assay; format: functional; settings: time 18-20 hrs
[29] = tested on: Staphylococcus aureus; test: Antimicrobial activity against Staphylococcus aureus ATCC 25923 infected in Caenorhabditis elegans AU37 assessed as reduction in bacterial burden at 20 uM incubated for 18 hrs; format: functional; design: scale not given: the % may be the effect or the level left
[30] = tested on: Staphylococcus aureus; test: Antibiofilm activity against Staphylococcus aureus ATCC 25923 assessed as inhibition of biofilm biomass at 100 uM incubated for 18 to 20 hrs by crystal violet staining based assay; format: functional; settings: time 18-20 hrs
[31] = tested on: Staphylococcus aureus; test: Synergistic antibacterial activity against methicillin-resistant Staphylococcus aureus ATCC 43300 assessed as fractional inhibitory concentration index incubated for 18 to 20 hrs in presence of gentamicin by checkboard assay; format: functional; settings: time 18-20 hrs
[32] = tested on: Staphylococcus aureus; test: Synergistic antibacterial activity against methicillin-resistant Staphylococcus aureus ATCC 43300 incubated for 18 to 20 hrs in presence of ciprofloxacin by checkboard assay; format: functional; settings: time 18-20 hrs
[33] = tested on: Enterococcus faecalis; test: Synergistic antibacterial activity against Enterococcus faecalis ATCC 29212 assessed as fractional inhibitory concentration index incubated for 18 to 20 hrs in presence of linezolid by checkboard assay; format: functional; settings: time 18-20 hrs
[34] = tested on: Staphylococcus aureus; test: Bactericidal activity against methicillin-resistant Staphylococcus aureus assessed as reduction in bacterial growth at 0.5 to 8 times MIC incubated for 24 hrs by time-kill assay; format: functional
[35] = tested on: Enterococcus faecalis; test: Synergistic antibacterial activity against Enterococcus faecalis ATCC 29212 assessed as vancomycin MIC incubated for 18 to 20 hrs by checkboard assay; format: functional; settings: time 18-20 hrs
[36] = tested on: Staphylococcus aureus; test: Bactericidal activity against Staphylococcus aureus ATCC 25923 assessed as reduction in viable bacterial count incubated for 2 hrs by time-kill assay; format: functional, organism-based
[37] = tested on: Enterococcus faecalis; test: Synergistic antibacterial activity against Enterococcus faecalis ATCC 29212 assessed as fractional inhibitory concentration index incubated for 18 to 20 hrs in presence of gentamicin by checkboard assay; format: functional; settings: time 18-20 hrs
[38] = tested on: Enterococcus faecalis; test: Synergistic antibacterial activity against Enterococcus faecalis ATCC 29212 assessed as gentamicin MIC incubated for 18 to 20 hrs by checkboard assay; format: functional; settings: time 18-20 hrs

In the case of `O=C(O)c1cc2cc(OCc3ccc(C4CCCCC4)c(C(F)(F)F)c3)ccc2[nH]1`, the “log(activity)” value [1] is reported as over 5, the selectivity ratio [2] is reported as over 12 and the MIC [3] is reported as 1.25 µM. For the same compound, the Activity [4] was about 20%, the MIC [5] was 1.25 µM and the “fractional inhibitory concentration index (FICI)” value [6] was 2. For the same compound, the inhibition at 40 µM [7] was at most 90%, the MIC [8] was 10 µM (≈ 4.17 µg/mL) and the MIC [9] was 5 µM. The MIC [10] was 5 µM, the MIC [11] was 2.5 µM (≈ 1.04 µg/mL) and the “fractional inhibitory concentration index (FICI)” value [12] was 0.75. The hemolysis at 1 h, 125 µM [13] was 57%, the “fractional inhibitory concentration index (FICI)” value [14] was 1 and the selectivity ratio [15] was over 12. The “fractional inhibitory concentration index (FICI)” value [16] was 0.625, the Activity [17] was “Active” and the Activity [18] was “inactive”. For the same compound, the MIC [19] was 1.25 µM, the Activity [20] was “inactive” and the MBC [21] was 5 µM (≈ 2.09 µg/mL). For the same compound, the Ratio [22] was 3, the MIC [23] was 5 µM (≈ 2.09 µg/mL) and the MIC [24] was 2.5 µM (≈ 1.04 µg/mL). For the same compound, the MIC [25] was 5 µM, the Activity [26] was “Non-Toxic” and the “log(activity)” value [27] was over 3. The “fractional inhibitory concentration index (FICI)” value [28] was 0.75, the Activity [29] was over 85% and the inhibition at 100 µM [30] was over 90%. For the same compound, the “fractional inhibitory concentration index (FICI)” value [31] was “<=0.5”, the MIC [32] was 1.25 µM and the “fractional inhibitory concentration index (FICI)” value [33] was 2. For the same compound, the MBC [34] was 5 µM (≈ 2.09 µg/mL), the MIC [35] was 2.5 µM and the Activity [36] was “Dose-Dependent Effect”. For the same compound, the “fractional inhibitory concentration index (FICI)” value [37] was 0.375 and the MIC [38] was 1 µg/mL.
